Tests used:
Assay in all cases: PathHunter β-arrestin GpcrMAX assay
Assay type in all cases: cell-based
[1] = molecular target: T1, ADRA1B (Homo sapiens, UniProt P35368)
T1 construct: purchased DiscoveRx (Eurofins) gpcrMAX PathHunter β-arrestin panel
Procedure: (§1) GpcrMAX panel biosensor assays were used to characterize taveuniamide F (4, 20 µM) (agonist and antagonist mode). The experiments were carried out by DiscoveRx Corporation (Fremont, CA, USA) as described before, using PathHunter β-arrestin enzyme fragment complementation (EFC) technology.

[2] = molecular target: ADRB2 (Homo sapiens, UniProt P07550)
Chain of ADRB2 (P07550 whole entry): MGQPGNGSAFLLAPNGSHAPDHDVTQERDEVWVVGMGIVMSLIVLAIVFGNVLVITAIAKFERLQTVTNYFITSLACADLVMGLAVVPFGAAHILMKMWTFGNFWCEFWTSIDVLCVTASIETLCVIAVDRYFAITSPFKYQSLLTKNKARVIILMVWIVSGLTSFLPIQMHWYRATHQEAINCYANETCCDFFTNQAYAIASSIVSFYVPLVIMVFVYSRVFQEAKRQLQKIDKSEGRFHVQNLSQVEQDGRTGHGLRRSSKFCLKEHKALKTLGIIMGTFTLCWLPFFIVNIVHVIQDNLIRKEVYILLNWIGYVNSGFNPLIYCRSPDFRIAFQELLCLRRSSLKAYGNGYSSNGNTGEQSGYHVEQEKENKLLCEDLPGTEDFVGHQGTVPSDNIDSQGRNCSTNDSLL
Procedure: as §1

[3] = molecular target: AVPR1B (Homo sapiens, UniProt P47901)
Procedure: as §1

[4] = molecular target: AVPR2 (Homo sapiens, UniProt P30518)
Procedure: as §1

[5] = molecular target: BDKRB2 (Homo sapiens, UniProt P30411)
Procedure: as §1

[6] = molecular target: T2, CCKAR (Homo sapiens, UniProt P32238)
T2 construct: purchased DiscoveRx (Eurofins) gpcrMAX PathHunter β-arrestin panel
Procedure: as §1

[7] = molecular target: T3, CCKBR (Homo sapiens, UniProt P32239)
T3 construct: purchased DiscoveRx (Eurofins) gpcrMAX PathHunter β-arrestin panel
T3 sequence (P32239 whole entry): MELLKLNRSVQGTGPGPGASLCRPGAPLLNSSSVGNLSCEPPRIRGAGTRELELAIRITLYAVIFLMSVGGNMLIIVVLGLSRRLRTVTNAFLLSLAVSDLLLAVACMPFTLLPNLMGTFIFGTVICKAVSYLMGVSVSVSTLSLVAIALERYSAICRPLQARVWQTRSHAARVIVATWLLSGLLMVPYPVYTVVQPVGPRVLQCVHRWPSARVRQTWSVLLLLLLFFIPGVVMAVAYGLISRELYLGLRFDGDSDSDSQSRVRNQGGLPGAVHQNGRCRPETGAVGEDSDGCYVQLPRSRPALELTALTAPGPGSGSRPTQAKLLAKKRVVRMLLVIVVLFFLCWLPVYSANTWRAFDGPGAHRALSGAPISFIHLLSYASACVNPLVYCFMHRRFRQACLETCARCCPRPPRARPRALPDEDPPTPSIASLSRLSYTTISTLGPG
Procedure: as §1

[8] = molecular target: T4, CCR10 (Homo sapiens, UniProt P46092)
T4 construct: purchased DiscoveRx (Eurofins) gpcrMAX PathHunter β-arrestin panel
Procedure: as §1

[9] = molecular target: T5, CCR7 (Homo sapiens, UniProt P32248)
T5 construct: purchased DiscoveRx (Eurofins) gpcrMAX PathHunter β-arrestin panel
Procedure: as §1

[10] = molecular target: T6, CRHR1 (Homo sapiens, UniProt P34998)
T6 construct: purchased DiscoveRx (Eurofins) gpcrMAX PathHunter β-arrestin panel
T6 sequence (P34998 24-415): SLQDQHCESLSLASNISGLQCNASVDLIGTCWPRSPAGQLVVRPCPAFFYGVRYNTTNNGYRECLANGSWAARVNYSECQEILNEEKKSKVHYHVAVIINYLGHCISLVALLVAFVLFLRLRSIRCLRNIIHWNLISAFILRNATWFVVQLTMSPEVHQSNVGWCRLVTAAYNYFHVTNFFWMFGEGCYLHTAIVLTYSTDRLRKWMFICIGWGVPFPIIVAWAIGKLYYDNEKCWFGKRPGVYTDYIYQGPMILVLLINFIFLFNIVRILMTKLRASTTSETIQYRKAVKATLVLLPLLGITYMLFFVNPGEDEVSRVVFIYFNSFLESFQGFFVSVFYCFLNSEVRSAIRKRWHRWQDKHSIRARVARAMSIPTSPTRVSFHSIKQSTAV
Procedure: as §1

[11] = molecular target: T7, CRHR2 (Homo sapiens, UniProt Q13324)
T7 construct: purchased DiscoveRx (Eurofins) gpcrMAX PathHunter β-arrestin panel
Procedure: as §1

[12] = molecular target: T8, CRTH2 (Homo sapiens, UniProt Q9Y5Y4)
T8 construct: purchased DiscoveRx (Eurofins) gpcrMAX PathHunter β-arrestin panel
T8 sequence (Q9Y5Y4 whole entry): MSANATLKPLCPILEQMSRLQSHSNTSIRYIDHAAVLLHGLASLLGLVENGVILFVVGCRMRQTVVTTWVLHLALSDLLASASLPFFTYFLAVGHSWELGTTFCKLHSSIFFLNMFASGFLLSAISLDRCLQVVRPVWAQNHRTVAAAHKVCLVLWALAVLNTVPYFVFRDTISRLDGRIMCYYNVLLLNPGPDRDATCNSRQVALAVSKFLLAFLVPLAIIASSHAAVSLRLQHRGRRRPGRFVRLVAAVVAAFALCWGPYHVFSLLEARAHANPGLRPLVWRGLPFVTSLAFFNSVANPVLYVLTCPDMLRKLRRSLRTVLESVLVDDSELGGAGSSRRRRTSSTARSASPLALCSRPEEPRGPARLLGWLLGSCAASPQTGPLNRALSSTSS
Procedure: as §1

[13] = molecular target: T9, CXCR7 (Homo sapiens, UniProt P25106)
T9 construct: purchased DiscoveRx (Eurofins) gpcrMAX PathHunter β-arrestin panel
T9 sequence (P25106 whole entry): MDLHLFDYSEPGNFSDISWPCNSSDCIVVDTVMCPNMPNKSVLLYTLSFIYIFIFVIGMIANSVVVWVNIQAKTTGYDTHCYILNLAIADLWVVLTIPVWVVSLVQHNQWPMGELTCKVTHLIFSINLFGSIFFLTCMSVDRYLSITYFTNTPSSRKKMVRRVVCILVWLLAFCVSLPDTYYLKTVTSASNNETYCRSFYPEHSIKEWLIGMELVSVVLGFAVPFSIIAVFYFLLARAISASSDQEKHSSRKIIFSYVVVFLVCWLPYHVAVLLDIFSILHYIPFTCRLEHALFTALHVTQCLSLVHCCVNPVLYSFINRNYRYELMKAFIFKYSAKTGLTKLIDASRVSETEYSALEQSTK
Procedure: as §1

[14] = molecular target: T10, DRD1 (Homo sapiens, UniProt P21728)
T10 construct: purchased DiscoveRx (Eurofins) gpcrMAX PathHunter β-arrestin panel
Procedure: as §1

[15] = molecular target: T11, DRD4 (Homo sapiens, UniProt P21917)
T11 construct: purchased DiscoveRx (Eurofins) gpcrMAX PathHunter β-arrestin panel
Procedure: as §1

[16] = molecular target: T12, DRD5 (Homo sapiens, UniProt P21918)
T12 construct: purchased DiscoveRx (Eurofins) gpcrMAX PathHunter β-arrestin panel
Procedure: as §1

[17] = molecular target: T13, EBI2 (Homo sapiens, UniProt P32249)
T13 construct: purchased DiscoveRx (Eurofins) gpcrMAX PathHunter β-arrestin panel
Procedure: as §1

[18] = molecular target: T14, EDG7 (Homo sapiens, UniProt Q9UBY5)
T14 construct: purchased DiscoveRx (Eurofins) gpcrMAX PathHunter β-arrestin panel
Procedure: as §1

[19] = molecular target: T15, F2R (Homo sapiens, UniProt P25116)
T15 construct: purchased DiscoveRx (Eurofins) gpcrMAX PathHunter β-arrestin panel
T15 sequence (P25116 22-425): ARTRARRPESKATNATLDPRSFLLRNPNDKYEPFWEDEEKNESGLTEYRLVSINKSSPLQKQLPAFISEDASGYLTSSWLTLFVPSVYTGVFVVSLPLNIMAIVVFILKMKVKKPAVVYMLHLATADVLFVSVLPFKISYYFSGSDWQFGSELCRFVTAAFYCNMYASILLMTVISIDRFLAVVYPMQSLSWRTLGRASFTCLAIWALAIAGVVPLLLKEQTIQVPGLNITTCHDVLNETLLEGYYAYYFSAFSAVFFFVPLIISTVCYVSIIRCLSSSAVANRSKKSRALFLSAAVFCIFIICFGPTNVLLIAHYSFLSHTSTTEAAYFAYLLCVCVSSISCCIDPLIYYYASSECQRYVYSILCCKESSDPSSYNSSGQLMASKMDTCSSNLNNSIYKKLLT
Procedure: as §1

[20] = molecular target: T16, FPR1 (Homo sapiens, UniProt P21462)
T16 construct: purchased DiscoveRx (Eurofins) gpcrMAX PathHunter β-arrestin panel
Procedure: as §1

[21] = molecular target: T17, FPRL1 (Homo sapiens, UniProt P25090)
T17 construct: purchased DiscoveRx (Eurofins) gpcrMAX PathHunter β-arrestin panel
Procedure: as §1

[22] = molecular target: T18, FSHR (Homo sapiens, UniProt P23945)
T18 construct: purchased DiscoveRx (Eurofins) gpcrMAX PathHunter β-arrestin panel
Procedure: as §1

[23] = molecular target: T19, GPR109B (Homo sapiens, UniProt P49019)
T19 construct: purchased DiscoveRx (Eurofins) gpcrMAX PathHunter β-arrestin panel
Procedure: as §1

[24] = molecular target: T20, GRPR (Homo sapiens, UniProt P30550)
T20 construct: purchased DiscoveRx (Eurofins) gpcrMAX PathHunter β-arrestin panel
Procedure: as §1

[25] = molecular target: T21, HRH3 (Homo sapiens, UniProt Q9Y5N1)
T21 construct: purchased DiscoveRx (Eurofins) gpcrMAX PathHunter β-arrestin panel
T21 sequence (Q9Y5N1 whole entry): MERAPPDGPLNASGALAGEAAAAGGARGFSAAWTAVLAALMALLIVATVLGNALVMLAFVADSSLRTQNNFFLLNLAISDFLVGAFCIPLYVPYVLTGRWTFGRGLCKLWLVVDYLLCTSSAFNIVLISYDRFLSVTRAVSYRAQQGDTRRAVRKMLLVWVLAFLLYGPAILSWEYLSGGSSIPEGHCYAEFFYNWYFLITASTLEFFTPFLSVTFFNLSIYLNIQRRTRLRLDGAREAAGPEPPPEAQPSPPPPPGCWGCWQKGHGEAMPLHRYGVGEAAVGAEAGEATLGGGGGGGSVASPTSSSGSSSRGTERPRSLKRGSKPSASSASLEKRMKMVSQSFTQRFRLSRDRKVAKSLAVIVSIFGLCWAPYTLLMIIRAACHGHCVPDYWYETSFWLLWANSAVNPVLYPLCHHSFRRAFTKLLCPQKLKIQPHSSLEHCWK
Procedure: as §1

[26] = molecular target: T22, HRH4 (Homo sapiens, UniProt Q9H3N8)
T22 construct: purchased DiscoveRx (Eurofins) gpcrMAX PathHunter β-arrestin panel
Procedure: as §1

[27] = molecular target: T23, MCHR2 (Homo sapiens, UniProt Q969V1)
T23 construct: purchased DiscoveRx (Eurofins) gpcrMAX PathHunter β-arrestin panel
Procedure: as §1

[28] = molecular target: T24, MRGPRX1 (Homo sapiens, UniProt Q96LB2)
T24 construct: purchased DiscoveRx (Eurofins) gpcrMAX PathHunter β-arrestin panel
T24 sequence (Q96LB2 whole entry): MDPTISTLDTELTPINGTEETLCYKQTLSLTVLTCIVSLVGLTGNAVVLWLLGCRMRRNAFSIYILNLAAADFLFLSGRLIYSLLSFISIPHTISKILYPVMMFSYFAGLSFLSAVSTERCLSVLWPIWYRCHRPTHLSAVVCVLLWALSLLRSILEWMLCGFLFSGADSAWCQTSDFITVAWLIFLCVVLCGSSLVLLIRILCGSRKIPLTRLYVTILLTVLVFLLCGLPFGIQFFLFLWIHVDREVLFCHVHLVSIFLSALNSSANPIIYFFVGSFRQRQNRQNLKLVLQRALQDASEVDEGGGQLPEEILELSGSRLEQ
Procedure: as §1

[29] = molecular target: T25, MTNR1A (Homo sapiens, UniProt P48039)
T25 construct: purchased DiscoveRx (Eurofins) gpcrMAX PathHunter β-arrestin panel
T25 sequence (P48039 whole entry): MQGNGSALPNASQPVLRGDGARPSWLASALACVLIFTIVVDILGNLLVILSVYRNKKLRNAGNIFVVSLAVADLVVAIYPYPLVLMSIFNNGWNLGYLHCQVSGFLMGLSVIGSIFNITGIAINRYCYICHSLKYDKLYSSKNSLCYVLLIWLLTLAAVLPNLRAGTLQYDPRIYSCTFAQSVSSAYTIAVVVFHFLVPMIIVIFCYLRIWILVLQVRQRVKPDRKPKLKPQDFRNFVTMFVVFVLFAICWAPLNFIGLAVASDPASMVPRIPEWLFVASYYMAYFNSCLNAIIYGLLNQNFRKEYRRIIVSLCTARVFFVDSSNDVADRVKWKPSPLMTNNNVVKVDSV
Procedure: as §1

[30] = molecular target: T26, NPBWR1 (Homo sapiens, UniProt P48145)
T26 construct: purchased DiscoveRx (Eurofins) gpcrMAX PathHunter β-arrestin panel
T26 sequence (P48145 whole entry): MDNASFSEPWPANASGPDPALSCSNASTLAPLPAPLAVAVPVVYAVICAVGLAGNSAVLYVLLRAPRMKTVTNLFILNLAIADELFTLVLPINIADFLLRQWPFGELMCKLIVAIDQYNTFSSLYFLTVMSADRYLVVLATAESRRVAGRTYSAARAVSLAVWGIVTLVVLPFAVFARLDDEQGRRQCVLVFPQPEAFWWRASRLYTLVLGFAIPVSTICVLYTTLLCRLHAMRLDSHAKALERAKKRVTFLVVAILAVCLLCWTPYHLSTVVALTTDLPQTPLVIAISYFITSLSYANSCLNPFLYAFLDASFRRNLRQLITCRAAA
Procedure: as §1

[31] = molecular target: T27, NPBWR2 (Homo sapiens, UniProt P48146)
T27 construct: purchased DiscoveRx (Eurofins) gpcrMAX PathHunter β-arrestin panel
Procedure: as §1

[32] = molecular target: T28, NPFFR1 (Homo sapiens, UniProt Q9GZQ6)
T28 construct: purchased DiscoveRx (Eurofins) gpcrMAX PathHunter β-arrestin panel
T28 sequence (Q9GZQ6 whole entry): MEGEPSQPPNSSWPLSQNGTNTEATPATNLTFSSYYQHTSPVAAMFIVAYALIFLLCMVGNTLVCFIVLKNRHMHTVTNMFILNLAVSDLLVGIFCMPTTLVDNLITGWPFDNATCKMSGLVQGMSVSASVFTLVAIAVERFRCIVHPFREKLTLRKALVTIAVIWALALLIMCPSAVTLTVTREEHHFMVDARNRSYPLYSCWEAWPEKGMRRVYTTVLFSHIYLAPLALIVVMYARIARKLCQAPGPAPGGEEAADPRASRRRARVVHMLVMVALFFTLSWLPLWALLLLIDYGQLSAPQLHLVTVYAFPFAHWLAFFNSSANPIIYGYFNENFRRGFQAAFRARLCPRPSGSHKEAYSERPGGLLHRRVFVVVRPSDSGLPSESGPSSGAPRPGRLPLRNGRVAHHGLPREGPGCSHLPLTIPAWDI
Procedure: as §1

[33] = molecular target: T29, OPRD1 (Homo sapiens, UniProt P41143)
T29 construct: purchased DiscoveRx (Eurofins) gpcrMAX PathHunter β-arrestin panel
Procedure: as §1

[34] = molecular target: T30, OPRK1 (Homo sapiens, UniProt P41145)
T30 construct: purchased DiscoveRx (Eurofins) gpcrMAX PathHunter β-arrestin panel
Procedure: as §1

[35] = molecular target: T31, P2RY11 (Homo sapiens, UniProt Q96G91)
T31 construct: purchased DiscoveRx (Eurofins) gpcrMAX PathHunter β-arrestin panel
T31 sequence (Q96G91 whole entry, one chain of several): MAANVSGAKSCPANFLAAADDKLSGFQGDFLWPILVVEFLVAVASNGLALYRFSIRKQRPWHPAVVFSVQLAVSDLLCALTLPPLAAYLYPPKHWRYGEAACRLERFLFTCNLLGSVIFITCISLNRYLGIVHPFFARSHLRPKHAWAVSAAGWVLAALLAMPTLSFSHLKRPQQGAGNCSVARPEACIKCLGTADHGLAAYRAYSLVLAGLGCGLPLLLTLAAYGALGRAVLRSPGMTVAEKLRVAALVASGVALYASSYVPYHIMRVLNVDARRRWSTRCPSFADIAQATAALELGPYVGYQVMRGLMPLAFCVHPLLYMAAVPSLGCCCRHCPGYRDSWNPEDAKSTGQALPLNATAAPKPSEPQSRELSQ
Procedure: as §1

[36] = molecular target: T32, PROKR1 (Homo sapiens, UniProt Q8TCW9)
T32 construct: purchased DiscoveRx (Eurofins) gpcrMAX PathHunter β-arrestin panel
Procedure: as §1

[37] = molecular target: T33, PROKR2 (Homo sapiens, UniProt Q8NFJ6)
T33 construct: purchased DiscoveRx (Eurofins) gpcrMAX PathHunter β-arrestin panel
Procedure: as §1

[38] = molecular target: T34, PTGER2 (Homo sapiens, UniProt P43116)
T34 construct: purchased DiscoveRx (Eurofins) gpcrMAX PathHunter β-arrestin panel
Procedure: as §1

[39] = molecular target: T35, PTHR1 (Homo sapiens, UniProt Q03431)
T35 construct: purchased DiscoveRx (Eurofins) gpcrMAX PathHunter β-arrestin panel
Procedure: as §1

[40] = molecular target: T36, TACR1 (Homo sapiens, UniProt P25103)
T36 construct: purchased DiscoveRx (Eurofins) gpcrMAX PathHunter β-arrestin panel
Procedure: as §1

[41] = molecular target: T37, TACR3 (Homo sapiens, UniProt P29371)
T37 construct: purchased DiscoveRx (Eurofins) gpcrMAX PathHunter β-arrestin panel
Procedure: as §1

[42] = molecular target: T38, TBXA2R (Homo sapiens, UniProt P21731)
T38 construct: purchased DiscoveRx (Eurofins) gpcrMAX PathHunter β-arrestin panel
Procedure: as §1

[43] = molecular target: T39, VIPR1 (Homo sapiens, UniProt P32241)
T39 construct: purchased DiscoveRx (Eurofins) gpcrMAX PathHunter β-arrestin panel
Procedure: as §1

inhibition at 20 µM [1]: 22.9%
inhibition at 20 µM [2]: 25.3%
inhibition at 20 µM [3]: 57.5%
inhibition at 20 µM [4]: 14.4%
inhibition at 20 µM [5]: 8.4%
inhibition at 20 µM [6]: 10.9%
inhibition at 20 µM [7]: 10.2%
inhibition at 20 µM [8]: 33.3%
inhibition at 20 µM [9]: 8.2%
inhibition at 20 µM [10]: -2.4%
inhibition at 20 µM [11]: 12%
inhibition at 20 µM [12]: 16.9%
inhibition at 20 µM [13]: 3.6%
inhibition at 20 µM [14]: 18.6%
inhibition at 20 µM [15]: 20.8%
inhibition at 20 µM [16]: 2.7%
inhibition at 20 µM [17]: 18%
inhibition at 20 µM [18]: 38.6%
inhibition at 20 µM [19]: 11.7%
inhibition at 20 µM [20]: -4.7%
inhibition at 20 µM [21]: 2.5%
inhibition at 20 µM [22]: 40.5%
inhibition at 20 µM [23]: 36.1%
inhibition at 20 µM [24]: 6.2%
inhibition at 20 µM [25]: 5%
inhibition at 20 µM [26]: 38.1%
inhibition at 20 µM [27]: 21.4%
inhibition at 20 µM [28]: -21.3%
inhibition at 20 µM [29]: 20.2%
inhibition at 20 µM [30]: -12.1%
inhibition at 20 µM [31]: 13.7%
inhibition at 20 µM [32]: 27.9%
inhibition at 20 µM [33]: 7.2%
inhibition at 20 µM [34]: 20.1%
inhibition at 20 µM [35]: 8.2%
inhibition at 20 µM [36]: 37.6%
inhibition at 20 µM [37]: 30.5%
inhibition at 20 µM [38]: 4.4%
inhibition at 20 µM [39]: 17.5%
inhibition at 20 µM [40]: 0.5%
inhibition at 20 µM [41]: 15.2%
inhibition at 20 µM [42]: -4.4%
inhibition at 20 µM [43]: -2.9%
SMILES: CC(=O)N[C@@H](CCCC#C/C=C/Cl)CCCCCCC(Cl)Cl [Compound 4, taveuniamide F]

Reference: paper PMC10817531, “Chlorinated Enyne Fatty Acid Amides from a Marine Cyanobacterium: Discovery of Taveuniamides L-M and Pharmacological Characterization of Taveuniamide F as a GPCR Antagonist with CNR1 Selectivity” (Marine Drugs, 2023)
